In brackets after ≈: the same amount, converted by molar mass.
What was measured:
[1] = Human liver microsome (HLM) metabolic stability assay; type: in vitro ADME; conditions: human liver microsomes
Method in brief: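 Compound at 1 uM incubated with human liver microsomes at 37° C. for 60 min after NADPH addition. Aliquots quenched in cold acetonitrile at 0, 5, 15, 30 and 60 min and analysed by LC/MS/MS. t1/2 from ln(% remaining) vs time slope; CLint, CLh and % Qh derived from it (n=1).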

physchem = conditions: kinetic from dmso stock
[2] = target: human soluble guanylate cyclase alpha 1 and beta 1 subunits (sGC) (Homo sapiens (Human), UniProt Q02108+Q02153); experiment: sGC cellular activator assay (cGMP, HTRF), in the presence and absence of 50% human serum; type: cell-based; conditions: CHO cells stably expressing human sGC alpha 1/beta 1, preincubated with 40 microM ODQ; cGMP by HTRF; Table 2 does not state whether with or without 50% human serum
Method in brief: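 Heme-oxidized conditions: ODQ (40 microM, 1 h) pretreatment of CHO cells stably expressing human α1/β1 sGC, in buffer containing 0.1% BSA and IBMX.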

[3] = pH 2.2, aqueous buffer, Solubility (pH 2.2)
[4] = pH 4.5, aqueous buffer, Solubility (pH 4.5)
[5] = pH 6.8, aqueous buffer, Solubility (pH 6.8)

Chain of human soluble guanylate cyclase alpha 1 and beta 1 subunits (sGC) (Q02108 whole entry partner): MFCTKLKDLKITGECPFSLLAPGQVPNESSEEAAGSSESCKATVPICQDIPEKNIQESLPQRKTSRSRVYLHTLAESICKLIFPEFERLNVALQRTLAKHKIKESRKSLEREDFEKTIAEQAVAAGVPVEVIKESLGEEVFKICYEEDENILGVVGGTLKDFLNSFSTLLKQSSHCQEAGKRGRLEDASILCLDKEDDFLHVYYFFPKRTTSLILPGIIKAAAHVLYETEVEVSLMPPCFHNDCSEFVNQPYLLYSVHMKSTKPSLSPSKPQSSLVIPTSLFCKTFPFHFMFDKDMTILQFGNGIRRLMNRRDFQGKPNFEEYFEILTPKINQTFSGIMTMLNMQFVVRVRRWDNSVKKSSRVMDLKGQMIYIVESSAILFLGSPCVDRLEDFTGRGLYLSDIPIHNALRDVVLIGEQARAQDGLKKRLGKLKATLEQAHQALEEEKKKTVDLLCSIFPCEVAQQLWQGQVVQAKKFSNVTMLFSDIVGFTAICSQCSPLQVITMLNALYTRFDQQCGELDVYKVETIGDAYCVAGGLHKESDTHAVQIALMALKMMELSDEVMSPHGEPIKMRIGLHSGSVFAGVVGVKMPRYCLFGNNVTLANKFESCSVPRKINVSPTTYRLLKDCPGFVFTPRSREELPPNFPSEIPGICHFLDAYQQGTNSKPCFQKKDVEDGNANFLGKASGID
Chain of human soluble guanylate cyclase alpha 1 and beta 1 subunits (sGC) (Q02153 whole entry): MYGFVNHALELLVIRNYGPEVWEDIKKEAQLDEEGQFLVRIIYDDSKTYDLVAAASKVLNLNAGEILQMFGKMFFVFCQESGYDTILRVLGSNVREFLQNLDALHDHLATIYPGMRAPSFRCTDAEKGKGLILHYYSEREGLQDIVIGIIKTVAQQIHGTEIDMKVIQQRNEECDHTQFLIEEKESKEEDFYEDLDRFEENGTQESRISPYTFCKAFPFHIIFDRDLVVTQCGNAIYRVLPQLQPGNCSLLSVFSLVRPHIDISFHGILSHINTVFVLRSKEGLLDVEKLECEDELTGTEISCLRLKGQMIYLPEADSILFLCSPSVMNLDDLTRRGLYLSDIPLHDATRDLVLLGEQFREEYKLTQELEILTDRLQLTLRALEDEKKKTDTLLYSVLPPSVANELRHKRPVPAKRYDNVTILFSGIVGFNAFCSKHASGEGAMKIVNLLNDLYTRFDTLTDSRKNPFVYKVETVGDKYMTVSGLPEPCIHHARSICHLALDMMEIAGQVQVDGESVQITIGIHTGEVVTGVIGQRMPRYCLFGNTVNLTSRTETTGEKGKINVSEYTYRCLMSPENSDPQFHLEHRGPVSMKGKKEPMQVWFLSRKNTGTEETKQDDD

Row | SMILES | Metabolic stability (Qh %), % hepatic blood flow [1] [%] | solubility at 24 h (physchem; [3]) [µg/mL] | solubility at 24 h (physchem; [4]) [µg/mL] | solubility at 24 h (physchem; [5]) [µg/mL] | EC50 [2] [nM]
1 | CO[C@@H]1CN(c2nc(-c3cccc(C)c3OCc3ccc4c(c3F)CCN(C3COC3)CC4)cs2)CC[C@@H]1C(=O)O [Compound 267] | <24 | 116 (≈ 199 µM) | 60.3 (≈ 104 µM) | 59.6 (≈ 102 µM) | 7
2 | Cc1c(COc2ccccc2-c2cccc(N3CC[C@@]4(C(=O)O)C[C@H]4C3)n2)ccc2c1CCN(C1CCC1)C2 [Compound 292] | 47 | 113 (≈ 216 µM) | 43.5 (≈ 83.1 µM) | 6.2 (≈ 11.8 µM) | 3
3 | Cc1cc(COc2c(C)cccc2-c2cccc(N3C[C@@H]4C[C@]4(C(=O)O)C3)n2)cc2c1CN(C1COC1)CC2 [Compound 23] | <24 | 100 (≈ 190 µM) | 88 (≈ 167 µM) | 69 (≈ 131 µM) | 6
4 | COC[C@H]1N(c2nc(-c3cccc(C)c3OCc3ccc4c(c3C)CCN(C3CCC3)C4)cs2)C[C@@H]2C[C@@]21C(=O)O [Compound 160] | 38 | 120 (≈ 209 µM) | < 0.1 | 75 (≈ 131 µM) | 105
5 | Cc1cccc(-c2cccc(N3C[C@@H]4C[C@]4(C(=O)O)C3)n2)c1OCc1ccc2c(c1C)CCN(C1COC1)CC2 [Compound 34] | <24 | 110 (≈ 204 µM) | 97 (≈ 180 µM) | 67 (≈ 124 µM) | 2
6 | COC[C@H]1N(c2cccc(-c3cccc(C)c3OCc3ccc4c(c3)[C@H](C)CN(C3CCOCC3)CC4)n2)C[C@@H]2C[C@@]21C(=O)O [Compound 226] | <24 | 145 (≈ 237 µM) | 142 (≈ 231 µM) | 134 (≈ 219 µM) | 6
7 | Cc1ccc(OCc2cc(C)c3c(c2)CCN(C2CCOCC2)C3)c(-c2cccc(N3C[C@@H]4C[C@]4(C(=O)O)C3)n2)c1 [Compound 37] | <24 | 100 (≈ 181 µM) | 93 (≈ 168 µM) | 50 (≈ 90.3 µM) | 299
8 | COc1cc(COc2c(Cl)cccc2-c2cccc(N3CC[C@@H](C(=O)O)[C@@H](OC)C3)n2)cc2c1CN(C1CCOCC1)CC2 [Compound 251] | 36 | 155 (≈ 249 µM) | 90.7 (≈ 146 µM) | 66.6 (≈ 107 µM) | 6
9 | Cc1ccc(OCc2cnc3c(c2)CCN(C2CCOCC2)C3)c(-c2csc(N3CC[C@@]4(C(=O)O)C[C@H]4C3)n2)c1 [Compound 194] | <24 | 140 (≈ 250 µM) | 70 (≈ 125 µM) | 57 (≈ 102 µM) | 63
10 | O=C(O)[C@@]12CCN(c3nc(-c4ccccc4OCc4ccc5c(c4)CCN(C4CCOCC4)C5)cs3)C[C@@H]1C2 [Compound 82] | <24 | 100 (≈ 183 µM) | 40 (≈ 73.3 µM) | 22 (≈ 40.3 µM) | 10
11 | CO[C@@H]1CN(c2nc(-c3cc(F)cc(C)c3OCc3ccc4c(c3)[C@@H](C)CN(C3CCOCC3)CC4)cs2)CC[C@@H]1C(=O)O [Compound 328] | 45 | 97.4 (≈ 156 µM) | 59.4 (≈ 95.2 µM) | 56.8 (≈ 91.1 µM) | 2
12 | Cc1cccc(-c2cccc(N3C[C@@H]4C[C@]4(C(=O)O)C3)n2)c1OCc1ccc2c(c1C)CCN(C1CCOCC1)CC2 [Compound 33] | <24 | 110 (≈ 194 µM) | 93 (≈ 164 µM) | 68 (≈ 120 µM) | 4
13 | CO[C@H]1CN(c2nc(-c3cccc(C)c3OCc3ccc4c(c3C)CCN(C3CCOCC3)CC4)cs2)CC[C@H]1C(=O)O [Compound 288] | <24 | 117 (≈ 193 µM) | 75.5 (≈ 125 µM) | 71.8 (≈ 119 µM) | 18
14 | Cc1cc(C)c(OCc2ccc3c(c2C)CCN(C2CCOCC2)C3)c(-c2csc(N3C[C@@H]4C[C@]4(C(=O)O)C3)n2)c1 [Compound 152] | <24 | 110 (≈ 192 µM) | 70 (≈ 122 µM) | 53 (≈ 92.4 µM) | 71
15 | CO[C@@H]1CN(c2cccc(-c3cc(C)ccc3OCc3cc(C)c4c(c3)CCN(C3CCOCC3)C4)n2)CC[C@@H]1C(=O)O [Compound 76] | <24 | 130 (≈ 222 µM) | 110 (≈ 188 µM) | 80 (≈ 137 µM) | 25
16 | COC[C@@H]1N(c2cccc(-c3cccc(C)c3OCc3cc(C)c4c(c3)CCN(C3CCOCC3)C4)n2)C[C@@H]2C[C@@]21C(=O)O [Compound 62] | <24 | 130 (≈ 217 µM) | 130 (≈ 217 µM) | 130 (≈ 217 µM) | 465
17 | COC[C@H]1N(c2cccc(-c3cccc(C)c3OCc3cc(C)c4c(c3)CCN(C3CCOC3)C4)n2)C[C@@H]2C[C@@]21C(=O)O (some centres unmarked) [Compound 50] | 26 | 120 (≈ 206 µM) | 96 (≈ 164 µM) | 77 (≈ 132 µM) | 8
18 | Cc1c(COc2ccccc2-c2cccc(N3CC[C@@]4(C(=O)O)C[C@H]4C3)n2)ccc2c1CCN(Cc1cncn1C)C2 [Compound 308] | 43 | 135 (≈ 239 µM) | 97.5 (≈ 173 µM) | 0.1 (≈ 0.177 µM) | 10
19 | CCO[C@@H]1CN(c2nc(-c3cc(C)ccc3OCc3cc(OC)c4c(c3F)CCN(C3CCOCC3)C4)cs2)CC[C@@H]1C(=O)O [Compound 272] | <24 | 128 (≈ 201 µM) | 54.1 (≈ 84.6 µM) | 18.5 (≈ 28.9 µM) | 2
20 | CCO[C@H]1CN(c2cccc(-c3cccc(C)c3OCc3cc4c(c(OC)c3)CN(C3CCOCC3)CC4)n2)CC[C@H]1C(=O)O [Compound 234] | 55 | 128 (≈ 207 µM) | 124 (≈ 201 µM) | 117 (≈ 190 µM) | 257
21 | CO[C@@H]1CN(c2cccc(-c3cccc(Cl)c3OCc3cc(C)c4c(c3)CCN(C3CCOCC3)C4)n2)CC[C@@H]1C(=O)O [Compound 255] | 25 | 170 (≈ 280 µM) | 69.5 (≈ 115 µM) | 37.7 (≈ 62.2 µM) | 7
22 | CO[C@H]1CN(c2nc(-c3cc(C)ccc3OCc3cc(C)c4c(c3C)CCN(C3CCOCC3)C4)cs2)CC[C@H]1C(=O)O [Compound 181] | <24 | 120 (≈ 198 µM) | 53 (≈ 87.5 µM) | 5 (≈ 8.25 µM) | 23
23 | CO[C@@H]1CN(c2nc(-c3cc(F)cc(C)c3OCc3ccc4c(c3C)CCN(C3COC3)CC4)cs2)CC[C@@H]1C(=O)O [Compound 327] | 61 | 99.8 (≈ 168 µM) | 51.8 (≈ 87 µM) | 59.1 (≈ 99.2 µM) | 5
24 | CO[C@H]1CN(c2cccc(-c3cccc(C)c3OCc3ccc4c(c3)CCN(C3CCOCC3)C4)n2)CC[C@H]1C(=O)O [Compound 64, (3R,4R)-3-Methoxy-6′-{3-methyl-2-[2-(tetrahydro-pyran-4-yl)-1,2,3,4-tetrahydro-isoquinolin-6-ylmethoxy]-phenyl}-3,4,5,6-tetrahydro-2H-[1,2′]bipyridinyl-4-carboxylic acid] | 29 | 100 (≈ 175 µM) | 88 (≈ 154 µM) | 69 (≈ 121 µM) | 36
25 | CO[C@H]1CN(c2nc(-c3cc(C)ccc3OCc3ccc4c(c3C)CCN(C3CCOCC3)C4)cs2)CC[C@H]1C(=O)O [Compound 178] | <24 | 110 (≈ 186 µM) | 72 (≈ 122 µM) | 5.1 (≈ 8.62 µM) | 14

From patent US9353090B2, “Heterocyclic carboxylic acids as activators of soluble guanylate cyclase” (Boehringer Ingelheim International GmbH, priority 2014, dated 2016)
